Molecules are shown by their SMILES.

The subject of this test is female C57BL/6 mice at the age of 21 months. Kind of test: grip strength test in aged mice. The format is in vivo. The conditions noted are these: oral for 5 weeks, sobrerol 17.6 or 35.3 mg/kg, clenbuterol 2 mg/kg. As to the method:
The grip strength was measured using a grip strength measuring device for mouse (BIOSEB) (FIG. 6). Specifically, the front limbs of the mice of the Example 3-1 were placed on a wire net attached to an instrument panel capable of monitoring the strength, and the strength to hold the wire net was measured while the tail was gripped and pulled downward. The test was repeated three times in succession.
Experiments were conducted to confirm whether sobrerol increases muscle strength in aged mice. Female C57BL/6 mice at the age of 21 months were adapted to the environment for 2 weeks and then orally administered with drugs for 5 weeks. Specifically, the negative control group was administered with water, the positive control group was administered with clenbuterol at a concentration of 2 mg/kg (mouse), and the sobrerol administration experimental group was orally administered with sobrerol at a concentration of 17.6 or 35.3 mg/kg (mouse). Then, locomotion tests (grip strength, treadmill) were conducted again to verify the effect.
The grip strength test is the same as the Example 3-2.

Take `CC(C)(C)NCC(O)c1cc(Cl)c(N)c(Cl)c1` (stereo not shown) [clenbuterol]: the “fatigue (grip strength weakening) on repeated grip strength measurement” value is listed as “did not show the increase in fatigue”.

These data come from patent publication US10765642B2, “Composition for preventing or treating muscle weakness-related diseases comprising sobrerol” (KOREA RESEARCH INSTITUTE OF BIOSCIENCE AND BIOTECHNOLOGY, priority 2015, dated 2020).
